Measured values as given in ChEMBL document CHEMBL3045668, “Synthesis, antioxidant, and antibacterial studies of phenolic esters and amides of 2-(1-benzofuran-2-yl) quinoline-4-carboxylic acid” (Med Chem Res, 2013).
≈ marks a conversion by molar mass, not a printed value.

How the values were obtained:
Ochrobactrum [1] = test: Antibacterial activity against Ochrobactrum at 1 mg/ml after 24 hr by agar well diffusion assay; type: functional; conditions: read-out: IZ
Pantoea dispersa [2] = test: Antibacterial activity against Pantoea dispersa at 1 mg/ml after 24 hr by agar well diffusion assay; type: functional; conditions: read-out: IZ
Enterococcus [3] = test: Antibacterial activity against Enterococcus after 18 to 20 hr by serial broth dilution method; type: functional
Staphylococcus aureus [4] = test: Antibacterial activity against Staphylococcus aureus after 18 to 20 hr by serial broth dilution method; type: functional
Ochrobactrum [5] = test: Antibacterial activity against Ochrobactrum after 18 to 20 hr by serial broth dilution method; type: functional
Pantoea dispersa [6] = test: Antibacterial activity against Pantoea dispersa after 18 to 20 hr by serial broth dilution method; type: functional
Staphylococcus aureus [7] = test: Antibacterial activity against Staphylococcus aureus at 1 mg/ml after 24 hr by agar well diffusion assay; type: functional; conditions: read-out: IZ
Enterococcus [8] = test: Antibacterial activity against Enterococcus at 1 mg/ml after 24 hr by agar well diffusion assay; type: functional; conditions: read-out: IZ
[9] = system: Radical scavenging activity; test: Antioxidant activity assessed as DPPH radical scavenging activity […] after 30 min by spectrophotometric analysis; type: functional
[10] = Metal chelating activity assessed as inhibition of Fe2+-ferrozine complex at 0.5 to 2 mg/ml after 10 min by spectrophotometric analysis; type: physicochemical

| Structure (SMILES) | zone of inhibition at 1000 µg/mL (Ochrobactrum [1]) [mm] | zone of inhibition at 1000 µg/mL (Pantoea dispersa [2]) [mm] | MIC (Enterococcus [3]) [µg/mL] | MIC (Staphylococcus aureus [4]) [µg/mL] | MIC (Ochrobactrum [5]) [µg/mL] | MIC (Pantoea dispersa [6]) [µg/mL] | zone of inhibition at 1000 µg/mL (Staphylococcus aureus [7]) [mm] | zone of inhibition at 1000 µg/mL (Enterococcus [8]) [mm] | IC50 [9] [µg/mL] | inhibition (INH) [10] |
| --- | --- | --- | --- | --- | --- | --- | --- | --- | --- | --- |
| Cc1ccc(OC(=O)c2cc(-c3cc4ccccc4o3)nc3ccccc23)cc1 | 20 | 13 | 60 (≈ 158 µM) | 60 (≈ 158 µM) | 60 (≈ 158 µM) | 250 (≈ 659 µM) | 19 | 19 | 49.5 (≈ 130 µM) | Active |
| O=C(c1cc(-c2cc3ccccc3o2)nc2ccccc12)N1CCCCC1 | 9 | 10 | > 500 | > 500 | > 500 | > 500 | 11 | 7 |  |  |
| O=C(Oc1cccc2ccccc12)c1cc(-c2cc3ccccc3o2)nc2ccccc12 | 11 | 15 | 500 (≈ 1200 µM) | 250 (≈ 602 µM) | 500 (≈ 1200 µM) | 120 (≈ 289 µM) | 14 | 13 | 45.6 (≈ 110 µM) | Active |
| Cc1ccccc1OC(=O)c1cc(-c2cc3ccccc3o2)nc2ccccc12 | 18 | 19 | 60 (≈ 158 µM) | 60 (≈ 158 µM) | 25 (≈ 65.9 µM) | 120 (≈ 316 µM) | 17 | 16 |  |  |
| O=C(Oc1c(Cl)cc(Cl)cc1Cl)c1cc(-c2cc3ccccc3o2)nc2ccccc12 | 12 | 14 | 500 (≈ 1070 µM) | 500 (≈ 1070 µM) | 500 (≈ 1070 µM) | 250 (≈ 533 µM) | 12 | 10 | 24.34 (≈ 51.9 µM) |  |
| O=C(Oc1ccccc1Cl)c1cc(-c2cc3ccccc3o2)nc2ccccc12 | 14 | 16 | 500 (≈ 1250 µM) | 500 (≈ 1250 µM) | 250 (≈ 625 µM) | 120 (≈ 300 µM) | 12 | 10 | > 100 |  |
| O=C(Oc1ccc(Cl)cc1)c1cc(-c2cc3ccccc3o2)nc2ccccc12 | 17 | 18 | 120 (≈ 300 µM) | 120 (≈ 300 µM) | 60 (≈ 150 µM) | 60 (≈ 150 µM) | 17 | 14 |  | Active |
| O=C(Oc1ccc2ccccc2c1)c1cc(-c2cc3ccccc3o2)nc2ccccc12 | 12 | 12 | > 500 | 500 (≈ 1200 µM) | > 500 | 250 (≈ 602 µM) | 12 | 10 | 15.6 (≈ 37.5 µM) | Active |
| O=C(Oc1ccc(Br)cc1)c1cc(-c2cc3ccccc3o2)nc2ccccc12 | 15 | 14 | 60 (≈ 135 µM) | 60 (≈ 135 µM) | 250 (≈ 563 µM) | 500 (≈ 1130 µM) | 18 | 16 |  | Active |
| O=C(Oc1ccccc1)c1cc(-c2cc3ccccc3o2)nc2ccccc12 | 16 | 18 | 120 (≈ 328 µM) | 60 (≈ 164 µM) | 60 (≈ 164 µM) | 120 (≈ 328 µM) | 16 | 12 |  | Active |
| Cc1nccn1C(=O)c1cc(-c2cc3ccccc3o2)nc2ccccc12 | 12 | 15 | > 500 | > 500 | 250 (≈ 707 µM) | 250 (≈ 707 µM) | 8 | 9 |  |  |
| O=C(c1cc(-c2cc3ccccc3o2)nc2ccccc12)N1CCOCC1 | 11 | 13 | 120 (≈ 335 µM) | > 500 | 500 (≈ 1400 µM) | 250 (≈ 698 µM) | 10 | 13 |  |  |
| O=C(Oc1ccc(Cl)cc1Cl)c1cc(-c2cc3ccccc3o2)nc2ccccc12 | 14 | 16 | 250 (≈ 576 µM) | 250 (≈ 576 µM) | 120 (≈ 276 µM) | 120 (≈ 276 µM) | 14 | 11 |  |  |
| CC1(C)S[C@@H]2[C@H](NC(=O)[C@H](N)c3ccccc3)C(=O)N2[C@H]1C(=O)O [AMPICILLIN] | 21 | 20 | 60 (≈ 172 µM) | 60 (≈ 172 µM) | 60 (≈ 172 µM) | 60 (≈ 172 µM) | 20 | 24 |  |  |
